From US20250339569A1, “CARBONIC ANHYDRASE IX LIGANDS” (priority 2021, published 2025)
Read-outs that look alike come from different tables or passages of the source. Starred links: 1 amine or outer side, 2 acyl side, 3 side chain; linkers in the order of their positions; H or OH if unused. Positions of bridges follow the written chain, without caps; N, C: chain ends. Non-standard residues stand in square brackets, D forms with d. Residues, ends and D or L forms follow the SMILES beside them. *: point of attachment. X4 = CS(=O)(=O)CC(=O)Nc1cccc(C[C@H](N[*:1])C(=O)[*:2])c1; DOTA = O=C(O)CN1CCN(CC(=O)O)CCN(CC(=O)*)CCN(CC(=O)O)CC1; X6 = O=C(O)CCC(=O)Nc1cccc(C[C@H](N[*:1])C(=O)[*:2])c1; mXylylene = c1cc(C[*:1])cc(C[*:2])c1; X2 = O=C(CN1CCC(N[*:1])CC1)[*:2]; Dap = NC[C@H](N)C(=O)O

How the values were obtained:
CAXII (hCAXII-bio) = biological target: T1, CAXII (hCAXII-bio) (Homo sapiens, UniProt O43570); assay: SPR selectivity assay with biotinylated CAXII; assay type: binding; conditions: SPR, biotinylated CAXII; read-out: pKD category (affinity) CAXII (converted)
T1 construct: purchased SinoBliological (Sino Biological) 10617-H08H
T1 sequence (O43570 25-354): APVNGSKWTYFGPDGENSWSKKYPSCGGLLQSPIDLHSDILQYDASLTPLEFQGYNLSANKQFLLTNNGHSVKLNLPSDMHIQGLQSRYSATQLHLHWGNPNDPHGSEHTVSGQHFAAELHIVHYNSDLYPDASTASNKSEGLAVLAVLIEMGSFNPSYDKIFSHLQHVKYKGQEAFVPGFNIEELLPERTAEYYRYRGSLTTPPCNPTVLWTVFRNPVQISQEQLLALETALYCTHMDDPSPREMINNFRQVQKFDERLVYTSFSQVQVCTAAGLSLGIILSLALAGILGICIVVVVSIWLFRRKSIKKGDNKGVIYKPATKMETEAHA
Experimental: (§1) In order to test selectivity of CAIX-binding peptides toward CAIV (SinoBliological, Cat #10472-1H081H), CAXII (SinoBliological, Cat #10617-H08H or CAXIV (SinoBliological, Cat #10458-H08H), SPR assays were performed analog to the assay described above but with a different target capture procedure. For immobilization, the carbonic anhydrases were biotinylated and capture on the SPR chip using the Biotin CAPture Kit (cytiva) according to the manufacturer instructions using HBSTE, 0.1% as Running Buffer.
(§2) Table 13 describes the protocol steps for biotinylated target capturing and assessment of the binding kinetics.

[1] = biological target: T2, human carbonic anhydrase IX (hCAIX-Fc) (Homo sapiens, UniProt Q16790); assay: Surface plasmon resonance assay with hCAIX-Fc; assay type: binding; conditions: 25° C.; for t1/2 category (activity): SPR dissociation half-life, hCAIX-Fc; for Kd: SPR, hCAIX-Fc captured, read-out: pKD category (activity) (converted)
T2 construct: purchased SinoBliological (Sino Biological) 10107-H02H

[2] = biological target: T3, CAIX-expressing human HT-29 colorectal cancer cells (Homo sapiens, UniProt Q16790); assay: FACS binding assay (IC50 determination, competition with tracer 3BP-2776 or 3BP-4149); conditions: FACS binding assay, HT-29 cells, competition with tracer 3BP-2776 (10 nM, biotin-labeled), 4° C., 1 hour; read-out: pIC50 category (activity) (converted)
T3 construct: CAIX-expressing human HT-29 colorectal cancer cells; host or cells: HT-29 human colorectal cancer cells
Method in brief: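 HT-29 cells in FACS buffer (PBS, 1% FCS) at 500.000 cells/ml were exposed to compounds competing with a labelled tracer, with biotinylated compounds detected by 1 μg/mL APC-streptavidin for 30 min on ice. APC/Cy5 median fluorescence was read by flow cytometry and IC50 derived by 4PL fit.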

CAXIV (hCAXIV-bio) = biological target: T4, CAXIV (hCAXIV-bio) (Homo sapiens, UniProt Q9ULX7); assay: SPR selectivity assay with biotinylated CAXIV; assay type: binding; conditions: SPR, biotinylated CAXIV; read-out: pKD category (affinity) CAXIV (converted)
T4 construct: purchased SinoBliological (Sino Biological) 10458-H08H
T4 sequence (Q9ULX7 16-337): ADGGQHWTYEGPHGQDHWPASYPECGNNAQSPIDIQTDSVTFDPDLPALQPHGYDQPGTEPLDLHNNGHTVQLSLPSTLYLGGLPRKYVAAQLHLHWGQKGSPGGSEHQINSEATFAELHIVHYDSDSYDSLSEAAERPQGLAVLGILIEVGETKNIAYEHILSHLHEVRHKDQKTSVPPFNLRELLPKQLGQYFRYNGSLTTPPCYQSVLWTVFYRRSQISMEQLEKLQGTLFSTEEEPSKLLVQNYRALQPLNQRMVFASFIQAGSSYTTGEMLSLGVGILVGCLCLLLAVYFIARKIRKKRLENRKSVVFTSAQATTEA
Experimental: as §1, §2

[3] = Plasma stability assay, mouse plasma; conditions: mouse plasma, 37°C, 24 h
CAIV (hCAIV-bio) = biological target: T5, CAIV (hCAIV-bio) (Homo sapiens, UniProt P22748); assay: SPR selectivity assay with biotinylated CAIV; assay type: binding; conditions: SPR, biotinylated CAIV; read-out: pKD category (affinity) CAIV (converted)
T5 construct: purchased SinoBliological (Sino Biological) 10472-1H081H
T5 sequence (P22748 19-284): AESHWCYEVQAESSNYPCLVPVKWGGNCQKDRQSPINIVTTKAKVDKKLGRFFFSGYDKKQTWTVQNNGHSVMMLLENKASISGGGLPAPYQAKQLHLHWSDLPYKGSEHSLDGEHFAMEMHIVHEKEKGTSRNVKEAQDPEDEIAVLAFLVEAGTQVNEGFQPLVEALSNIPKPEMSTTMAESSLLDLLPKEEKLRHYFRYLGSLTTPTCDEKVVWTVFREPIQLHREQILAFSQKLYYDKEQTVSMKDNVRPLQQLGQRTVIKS
Experimental: as §1, §2

[4] = mouse, plasma, 24 h

Kd (CAXII (hCAXII-bio)) | t1/2 category (activity) [1] | Kd [1] | IC50 [2] | Kd (CAXIV (hCAXIV-bio)) | % intact compound remaining (incubation time) [3] | Kd (CAIV (hCAIV-bio)) | % intact compound remaining (incubation time) [4] | SMILES
> 1000 nM | A (t1/2>15.0 minutes) | < 10 nM | < 10 nM | > 1000 nM | >95% | > 1000 nM |  | CC(C)C[C@@H]1NC(=O)[C@H](Cc2c[nH]c3ccccc23)NC(=O)[C@H](CC(=O)O)NC(=O)[C@H]2CCCN2C(=O)[C@H](CCC(=O)O)NC(=O)[C@@H]2CSCc3cccc(c3)CSC[C@@H](C(N)=O)NC(=O)[C@H](CNC(=O)C[C@H](NC(=O)[C@@H](NC(=O)CN3CCC(NC(=O)CN4CCN(CC(=O)O)CCN(CC(=O)O)CCN(CC(=O)O)CC4)CC3)C(C)C)C(=O)N2)NC(=O)[C@H](Cc2c[nH]c3ccccc23)NC(=O)[C@H]([C@@H](C)O)NC1=O [3BP-4174, DOTA-APAc-Val-{Asp-[Cys(3MeBn)-Glu-pro-Asp-Trp-Leu-Thr-Trp-Dap}-Cys]-NH2] ({DOTA}-[X2]VDCE[dP]DWLTW[Dap]C-NH2; lactam 3-12; linker 4-13 via mXylylene)
 | A (t1/2>15.0 minutes) | < 10 nM | < 10 nM |  |  |  | >95% | CC(C)C[C@@H]1NC(=O)[C@H](Cc2cccc(NC(=O)CCC(=O)O)c2)NC(=O)[C@H](CC(=O)O)NC(=O)[C@H]2CCCN2C(=O)[C@H](CCC(=O)O)NC(=O)[C@@H](NC(=O)[C@H](Cc2ccc(O)cc2)NC(=O)[C@@H](NC(=O)CN2CCC(NC(=O)CN3CCN(CC(=O)O)CCN(CC(=O)O)CCN(CC(=O)O)CC3)CC2)C(C)C)CSCc2cccc(c2)CSC[C@@H](C(N)=O)NC(=O)[C@H](CO)NC(=O)[C@H](Cc2c[nH]c3ccccc23)NC(=O)[C@H]([C@@H](C)O)NC1=O [3BP-4237, DOTA-APAc-Val-Tyr-[Cys(3MeBn)-Glu-pro-Asp-Af3(HO-Succinyl)-Leu-Thr-Trp-Ser-Cys]-NH2] ({DOTA}-[X2]VYCE[dP]D[X6]LTWSC-NH2; linker 4-13 via mXylylene)
 | B (t1/2 between 5.1 and 15.0 minutes) | < 10 nM | < 10 nM |  |  |  | >95% | CC(C)C[C@@H]1NC(=O)[C@H](Cc2cccc(NC(=O)CS(C)(=O)=O)c2)NC(=O)[C@H](CC(=O)O)NC(=O)[C@H]2CCCN2C(=O)[C@H](CCC(=O)O)NC(=O)[C@@H](NC(=O)[C@H](Cc2ccc(O)cc2)NC(=O)[C@@H](NC(=O)CN2CCC(NC(=O)CN3CCN(CC(=O)O)CCN(CC(=O)O)CCN(CC(=O)O)CC3)CC2)C(C)C)CSCc2cccc(c2)CSC[C@@H](C(N)=O)NC(=O)[C@H](CO)NC(=O)[C@H](Cc2c[nH]c3ccccc23)NC(=O)[C@H]([C@@H](C)O)NC1=O [3BP-4242] ({DOTA}-[X2]VYCE[dP]D[X4]LTWSC-NH2; linker 4-13 via mXylylene)
